Experimental findings from patent US4786755A, “Diphenic acid monoamides” (Warner-Lambert Company, priority 1986, dated 1988) are described below.

As a reminder, the inhibition is the drop in the measured response relative to a control, in per cent. The term IC50 denotes the concentration that gives 50% inhibition.

For one experiment, the system named is Sensitized Guinea Pigs. The experiment in a line: Slow-Onset (nonhistamine) Bronchospasm Induced by Antigen Challenge in Sensitized Guinea Pigs (SRSPIG). Further details: concentration or dose not given beside the values. The experiment is classed as in vivo, guinea pig. Particulars: mepyramine pretreated, five minutes after ovalbumin. The text has this:
Induction and Quantitation of the Slow-Onset (nonhistamine) Bronchospasm Induced by Antigen Challenge in Sensitized Guinea Pigs (SRSPIG)
This guinea pig in vivo model was developed to quantitate the pulmonary effects of nonhistamine mediated, antigen-induced anaphylaxis. Mepyramine pretreatment is used to block the effects of histamine to permit quantitation of the effects of other biologically active mediators. The method is designed to detect drugs which inhibit the release or synthesis "other" mediators, such as leukotriene, thromboxane, etc., or drugs blocking the end organ effects of these mediators. When a sensitized guinea pig is exposed to the sensitizing antigen, it develops a systemic anaphylactic response characterized by increased pulmonary resistance and decreased dynamic compliance (CDYN). Pulmonary resistance is a measure of the changes in transpulmonary pressure and respiratory flow. Dynamic compliance is an expression of the relative changes in tidal volume and transpulmonary pressure. In this model, dynamic compliance is used to measure changes in the elastic propertie of the small airways and pulmonary resistance to measure constrictive responses of the large airways. In human asthma, small airway changes appear to be more closely related to the pathogenesis of disease. Thus, dynamic compliance effects will be weighted more heavily in our analysis of the changes produced by drugs. In the presence of mepyramine, the effects of histamine are blocked. The observed pulmonary effects are thought to be largely leukotriene mediated. In the guinea pig, thromboxanes may also be involved (1,2) and might augment the leukotriene response. Since leukotrienes are not preformed mediators and their effects are slow in onset, in the absence of the histamine effect, a bronchospasm is not seen until approximately 1.5-3 minutes after antigen administration. However, the leukotriene-mediated response is long lasting.
Animals: Male Hartley strain guinea pigs, weighing between 200 and 250 g on delivery, were used. The animals were supplied by the Charles River Co., Wilmington, MA.
Sensitization Procedure: Ovalbumin (2× recrystallized, Miles Laboratories Ltd.) is dissolved (0.2 mg/ml) in saline. The guinea pigs are given a single intraperitoneal injection of 0.5 ml of the stock solution to sensitize them. The animals are maintained normally for four to six weeks before use.
Anesthesia: Surgical anesthesia is induced by giving an IP injection of valium, 5 mg/kg, followed immediately by Innovar-Vet (Pitman-More), 0.7 ml/kg (IM). Each ml of Innovar-Vet contains 0.4 mg fentanyl, 20 mg droperidol, 1.8 mg methylparaben, and 0.2 mg propylparaben.
Surgical Preparation: The anesthetized guinea pig is shaved in the ventral neck region and on the right side of the thorax and affixed supine to a dissecting board. A midline incision is made in the neck and the trachea is exposed. The jugular vein is cannulated with PE 50 tubing to administer drugs and antigen. The trachea is cannulated with PE 240 tubing. If the protocol required measuring blood pressure, the carotid artery is isolated and cannulated with PE 50 tubing. A spear-like cannula is then inserted into the thorax to measure transpulmonary pressure. Needle electrodes are inserted into the musculature of each leg to record electrocardiograms.
Pulmonary Mechanics Methods: The tracheal cannula is connected inline to a Fleisch 000 pneumotachograph (factor calibration 10 cm H2 O=22.2 ml/sec) and a Validyne differential pressure transducer, to measure respiratory flow. Transpulmonary pressure is measured by connecting one side of a Validyne pressure transducer to the side arm of the tracheal cannula and the other side to the cannula inserted into the thorax at approximately the 5th intercostal space.
The pressure and flow signals are fed into Validyne preamplifiers and then transmitted to a pulmonary mechanics computer (Buxco). […]

The test system of experiment [1] is Isolated Guinea Pig Lung Parenchyma. Nature of the experiment: Smooth Muscle Receptor Agonism-Antagonism Activity Evaluations In Vitro (IVAS), LTC4-induced contraction. Particulars: Cavia porcellus, LTC4-induced contraction. The experiment is classed as cell-based.
From the text: Smooth Muscle Receptor Agonism-Antagonism Activity Evaluations In Vitro (IVAS) Isolated Guinea Pig Lung Parenchyma
The potency of a test compound for receptor stimulation or antagonism, for example, can easily be determined since the concentration of the compound to which the muscle cell, or specialized responsive area on this cell, is exposed can be easily controlled and correlated with the recorded activity of muscle contraction or relaxation.
The procedures described herein are specifically concerned with the definition of a test drug action on isolated lung strips. Drug action is characterized either by an action per se on the tissues or by interaction with known smooth muscle receptor stimulants or antagonists.
Usually, the tests will be used to evaluate the ability of a test compound to antagonize the contraction induced by standard agonists in this case LTC4. A relative potency is derived by comparison with one of the standard blocking drugs. In caution, relative potencies of test compounds to known standards are valid only if full dose response curves are generated and the compound compared generate parallel dose/response curves with common maxima. Appropriate "within-trial" comparisons are also necessary.
Molecular antagonists compete with the agonist for the receptor. […] A physiological antagonist produces a response by action on a different receptor that causes an effect in opposition to the agonism.
A permanent isolated bath system is used which facilitates the vertical suspension of a segment of tissue in a small volume of a specific nutritive buffer. Frittered glass terminals provide dispersed bubbles of 95% oxygen and 5% carbon dioxide at the base of the individual tissue baths and the buffer reservoir. All baths and the reservoir are double-jacketed and water at 37° C. is circulated through the jacket of the baths to provide stable temperature regulation. The baths are arranged so that fresh solution from the reservoir passes through a jacketed glass coil to the base of the bath. The bubbling gas stirs the bath solution. During equilibration, fresh solution enters and excess solution is allowed to overflow. Unless a particular drug is required throughout the experiment and it is incorporated in the buffer, individual drugs are introduced directly into the bath by long hypodermic needles to the base of the bath without disturbing the tissue. Drugs are removed by rapidly draining the tissue bath from the bottom and refilling. Tissues are washed a minimum of six times. The emptying and refilling sequence takes only five seconds.
The contraction and relaxation of the smooth muscle preparation can be recorded either isotonically (change in length) or isometrically (change in tension). Isometric transducers are more sensitive and proportional. Isometric contractions are recorded electronically using Grass FT 0.03C force displacement transducers and Beckman Dynagraph recorders. The tissue is suspended vertically with one end of the segment anchored to the bottom of the bath and the other end attached to the mechanical electrical transducer muscle level. The electrical output of this transducer moves a pen on a moving chart in proportion to the force displacement.
Lung tissue is obtained from normal male guinea pigs. The heart and lungs are removed as a unit, placed in buffer, and the lungs are perfused with buffer by the spontaneously beating heart for several minutes.

`O=C(O)c1ccccc1-c1ccccc1C(=O)Nc1ccc(CCCc2ccc(Cl)c(Cl)c2)cc1` [Example 1, [1,1'-Biphenyl]-2-carboxylic acid, 2'-[[[4-[3-(3,4-dichlorophenyl)propyl]phenyl]amino]carbonyl]-]: in the experiment with Sensitized Guinea Pigs, the “SRS-PIG, percent inhibition (CDYN)” value worked out at 51%. The molecule also had an inhibition at 3 µM in experiment [1] (@ 3 μM) of 90%.

Take `O=C(O)c1ccccc1-c1ccccc1C(=O)Nc1ccc(OCCCc2ccccc2)cc1` [Example 2]: the “SRS-PIG, percent inhibition (CDYN)” value in the experiment with Sensitized Guinea Pigs is recorded as 64%.

For the molecule `O=C(O)c1ccccc1-c1ccccc1C(=O)Nc1ccc(CCc2ccc(Cl)c(Cl)c2)cc1` [Example 3, [1,1'-Biphenyl]-2-carboxylic acid, 2'-[[[4-[2-(3,4-dichlorophenyl)ethyl]phenyl]amino]carbonyl]-], the “SRS-PIG, percent inhibition (CDYN)” value in the experiment with Sensitized Guinea Pigs is 16%. The 50% inhibitory concentration (IC50) in experiment [1] was determined as 1000 nM.

For `O=C(O)c1ccccc1-c1ccccc1C(=O)Nc1cccc(CCc2ccc(Cl)c(Cl)c2)c1` [Example 4, [1,1'-Biphenyl]-2-carboxylic acid, 2'-[[[3-[2-(3,4-dichlorophenyl)ethyl]phenyl]amino]carbonyl]-], the “SRS-PIG, percent inhibition (CDYN)” value in the experiment with Sensitized Guinea Pigs stood at 3%.

With `O=C(O)c1ccccc1-c1ccccc1C(=O)Nc1ccc(CCCc2ccccc2)cc1` [Example 16, [1,1'-Biphenyl]-2-carboxylic acid, 2'-[[[4-(3-phenylpropyl]phenyl]amino]carbonyl]-], the “SRS-PIG, percent inhibition (CDYN)” value in the experiment with Sensitized Guinea Pigs is on record as 33%.

`O=C(O)c1ccccc1-c1ccccc1C(=O)Nc1ccc(CCCCCc2ccccc2)cc1` [Example 21, [1,1'-Biphenyl]-2-carboxylic acid, 2'-[[[4-(5-phenylpentyl)phenyl]amino]carbonyl]-]: the “SRS-PIG, percent inhibition (CDYN)” value in the experiment with Sensitized Guinea Pigs is reported as 21%.
